From patent US20260028374A1, “EPIDERMAL GROWTH FACTOR RECEPTOR INHIBITORS” (FILAMON LTD, priority 2023, published 2026)
Square brackets hold non-standard residues; d marks the D form. Peptide text beside a SMILES is read from it. 2Nal = N[C@@H](Cc1ccc2ccccc2c1)C(=O)O; d1Nal = N[C@H](Cc1cccc2ccccc12)C(=O)O

Columns and labels:
[1] = target: T1, EGF-EGFR interaction (Homo sapiens, UniProt P00533); test: EGF-EGFR AlphaLISA assay; format: binding; settings: in vitro AlphaLISA; for inhibition of the EGF/EGFR interaction: 0.01-200 μM
T1 construct: purchased Perkin-Elmer
T1 sequence (P00533 25-645 limits assumed): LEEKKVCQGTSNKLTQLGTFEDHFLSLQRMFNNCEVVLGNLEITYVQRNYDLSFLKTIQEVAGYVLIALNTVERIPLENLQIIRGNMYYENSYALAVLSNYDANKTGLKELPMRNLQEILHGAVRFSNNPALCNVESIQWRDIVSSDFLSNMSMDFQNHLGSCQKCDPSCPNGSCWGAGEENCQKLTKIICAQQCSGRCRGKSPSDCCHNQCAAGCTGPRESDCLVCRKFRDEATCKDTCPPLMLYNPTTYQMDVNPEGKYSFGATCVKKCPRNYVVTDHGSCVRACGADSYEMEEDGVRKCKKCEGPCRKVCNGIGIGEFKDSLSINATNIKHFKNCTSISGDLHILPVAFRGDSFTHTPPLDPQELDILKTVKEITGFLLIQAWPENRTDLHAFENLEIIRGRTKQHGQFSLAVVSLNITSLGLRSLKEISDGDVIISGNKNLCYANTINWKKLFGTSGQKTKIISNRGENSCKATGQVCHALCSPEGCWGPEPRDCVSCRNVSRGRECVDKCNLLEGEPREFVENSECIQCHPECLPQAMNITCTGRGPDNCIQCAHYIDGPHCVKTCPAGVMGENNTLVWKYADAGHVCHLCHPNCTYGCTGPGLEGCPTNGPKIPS
Description: FIG. 2. […] Representation of the molecules are as described in FIG. 1.
The AlphaLISA EGF/EGFR binding kit (Perkin-Elmer) was used as per the manufacturer's instructions. […] Finally, 5 μL of EGFR acceptor beads were added, and fluorescence imaged on a plate reader.

[2] = target: T2, EGFR (Homo sapiens, UniProt P00533); test: EGFR and lysotracker staining in A549 cells; format: cell-based; set-up: endogenous in cells; host or cells: A549; settings: A549, 16 hours
T2 sequence (P00533 25-1210): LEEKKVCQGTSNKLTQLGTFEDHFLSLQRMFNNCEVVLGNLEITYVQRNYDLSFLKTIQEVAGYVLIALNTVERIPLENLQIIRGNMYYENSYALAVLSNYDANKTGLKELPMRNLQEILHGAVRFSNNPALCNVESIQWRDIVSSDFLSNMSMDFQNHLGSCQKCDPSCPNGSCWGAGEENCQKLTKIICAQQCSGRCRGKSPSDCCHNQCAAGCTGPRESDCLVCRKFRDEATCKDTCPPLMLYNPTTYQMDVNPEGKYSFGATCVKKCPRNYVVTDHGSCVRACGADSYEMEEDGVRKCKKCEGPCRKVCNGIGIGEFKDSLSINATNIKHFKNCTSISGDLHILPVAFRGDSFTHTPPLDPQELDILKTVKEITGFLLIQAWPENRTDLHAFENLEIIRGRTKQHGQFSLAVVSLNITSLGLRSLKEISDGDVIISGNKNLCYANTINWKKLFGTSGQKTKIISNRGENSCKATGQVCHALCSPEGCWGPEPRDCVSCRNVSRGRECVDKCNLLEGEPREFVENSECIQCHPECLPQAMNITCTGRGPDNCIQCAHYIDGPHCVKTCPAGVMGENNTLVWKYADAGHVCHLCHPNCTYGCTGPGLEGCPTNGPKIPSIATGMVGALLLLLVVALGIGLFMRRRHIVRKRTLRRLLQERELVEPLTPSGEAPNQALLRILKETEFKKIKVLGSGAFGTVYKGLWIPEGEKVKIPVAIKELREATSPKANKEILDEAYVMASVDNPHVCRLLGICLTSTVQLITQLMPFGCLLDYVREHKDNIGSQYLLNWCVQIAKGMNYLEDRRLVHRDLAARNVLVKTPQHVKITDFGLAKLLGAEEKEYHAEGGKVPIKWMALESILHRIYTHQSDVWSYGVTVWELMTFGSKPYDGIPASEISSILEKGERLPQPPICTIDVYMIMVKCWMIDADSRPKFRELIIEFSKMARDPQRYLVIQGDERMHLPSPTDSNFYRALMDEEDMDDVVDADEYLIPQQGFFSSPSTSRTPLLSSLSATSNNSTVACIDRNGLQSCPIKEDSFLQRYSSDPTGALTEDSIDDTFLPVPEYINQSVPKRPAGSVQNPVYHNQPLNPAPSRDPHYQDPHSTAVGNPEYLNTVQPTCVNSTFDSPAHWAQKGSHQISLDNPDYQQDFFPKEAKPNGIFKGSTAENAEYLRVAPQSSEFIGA
Description: FIG. 5: (a) A549 cells were treated with DMSO (0.5%), EGF (50 ng/mL), or D1-D3 (1-100 μM) for 16 hours, before staining with lysotracker (red), fixing and staining with EGFR antibody (green). (b) EGFR signal, (c) EGFR membrane signal, (d) lysotracker signal and (e) EGFR speckle lysotracker signal (bars SEM) were quantified (n=3, >20 cells per replicate). Scale bars 20 μm.
To investigate the mechanism of how LYTAPS cause EGFR degradation, LYTAPs D1-D3 (1-100 μM) were incubated on A549 cells for 16 hours, with DMSO (0.5%) and high EGF (50 ng/mL) used as controls. Cells were then stained with Lysotracker, fixed and stained with EGFR-antibody. Under DMSO control, the majority of EGFR signal is present at the membrane (FIG. 5a).

[3] = tested on: NSCLC cell lines H3255 and H1975; test: Combination cell viability in NSCLC cell lines; format: cell-based; settings: H3255 and H1975, 72 hours
[4] = tested on: SW48 and SW48G12V; test: Combination cell viability in isogenic CRC cell lines; format: cell-based; settings: D1 0.001-100 μM with cetuximab 0.02-30 μg/mL, 72 hours
[5] = tested on: pERK; test: pERK immunofluorescence in A549 cells after EGF stimulation; format: cell-based; settings: A549, 100 μM for 16 hours, then EGF 10 ng/mL
Description: FIG. 6: A549 cells were treated with DMSO or D1-D3 (10-100 μM) for 16 hours before incubation with EGF (10 ng/mL) for 30 minutes, before cells were fixed and stained for pERK (green). Scale bars 20 μm, n=3, >20 cells per replicate.
To examine whether LYTAPs can inhibit EGFR downstream signalling, A549 cells were pre-incubated with 10-100 μM of D1-D3 for 16 hours, before stimulation with EGF (10 ng/mL) for […]. Cells were then fixed and immunofluorescently stained for pERK.

[6] = target: T2, EGFR; test: Western blot of EGFR in PC-3 cells; format: cell-based; settings: PC-3, 100 μM, time course 3, 16, 24 and 48 hours
Description: (§1) FIG. 3. (a) PC-3 cells treated with DMSO (0.5%), FLM-c2 (100 μM), D1-D3 (100 μM) or EGF (50 ng/mL) for 24 h, detected for EGFR and GAPDH. (b) PC-3 cells tagged with EGFR-EGFP and lysotracker treated with DMSO (0.5%) or D3 (100 μM) for 24 h.
FIG. 4. (a) PC-3 cells were treated with D1-D3 (100 μM) for 3, 16, 24 and 48 hours. EGFR and ß-Actin ratio was detected. (b) the EGFR:ß-Actin ratio was plotted after normalising to DMSO control.
PC-3 cells were seeded in a 6 well plate at 200,000 cells/well overnight at 37° C. and 5% C02. Media was removed, cells were washed with PBS and serum free media added 1 hour before treatment with FLM-c2, D1-D3 for 3-48 hours. After treatment, media was removed and cells were washed with ice cold PBS. PBS was removed and cells were scraped into 1 mL of PBS containing 5.3 mM of EDTA and centrifuged at 2500 g for 2 min. PBS was removed and cells were lysed with lysis buffer (PBS, 0.1% NP-40, 0.1% sodium deoxycholate, 150 mM NaCl, 1 mM EDTA, 1 mM dithiothreitol, 1 mM phenylmethylsulfonyl fluoride, and IX protease inhibitor cocktail)^17 and mixed with RM-2L Intelli-mixer for 30 min at 4° C. Lysates were then centrifuged at 12,000 g for 20 min at 4° C. 20 μg of lysate was added to 4 μL of Bolt reducing agent and 10 μL of reducing buffer (both reagents supplied by Thermo Fisher Scientific) for a final volume of 40 μL with PBS. Samples were boiled and run on a gel, transferred to a membrane and blocked for 1 hour in 5% skim milk at 25° C. Membrane was probed with either EGFR antibody #2232, GAPDH antibody #2118 or BS-Actin antibody #4970 (Cell Signalling) at 1:1000 in 5% skim milk/TBST overnight at 4° C. Each membrane was washed three times with 50 mL TBST for 5 mins and then incubated with the relevant secondary α-rabbit IgG-HRP-linked antibody (1:1000), for 1 hour at room temperature. The membrane was washed as described above and imaged with the Licor Odyssey.

[7] = tested on: CRC and NSCLC cancer cell lines; test: Proliferation assays in CRC and NSCLC cancer cell lines
[8] = tested on: H3255; settings: H3255, EGFR - L858R, cited from earlier work
[9] = tested on: H1975; settings: H1975, EGFR- L858R/T790M, cited from earlier work
[10] = target: T2, EGFR; test: Live cell imaging, EGFR-EGFP and lysotracker in PC-3 cells; format: cell-based; settings: PC-3, EGFR-EGFP and lysotracker, 100 μM, 24 hours
Description: as §1
PC-3 cells were seeded in a 24 well glass-bottom plate at 50 000 cells/well and incubated overnight at 37° C. and 5% CO2. Complete media was removed, wells washed with 500 μL of warm PBS for 1 min then removed and 500 μL serum free medium was added and left to incubate for one hour at 37° C. and 5% CO2. Cells were co-transfected with plasmids encoding fusion protein EGFR-EGFP (Addgene plasmid #32751, a gift from Alexander Sorkin) using Lipofectamine 3000 (Thermo Fisher Scientific) as per the manufacturer's instructions. Cells were incubated for 48 hours at 37° C. and 5% CO2, after which transfection efficiency was determined through observation of EGFP and signal with a confocal microscope LSM 800 (Zeiss). LysoTracker far red (Thermo Fisher Scientific) was incubated at 1 μM for 37° C. and 5% CO2. Cells were washed three times with PBS and serum free media was added to cells, Either DMSO (0.5%) or D3 (100 μM) were added overnight at 37° C. and 5% CO2 before imaging on the confocal microscope LSM 800 (Zeiss).

[11] = tested on: EGFR, Rab5 and hGIIA localisation; test: Live cell imaging of EGFR, Rab5 and hGIIA localisation in PC-3 cells; format: cell-based; settings: PC-3, Lapatinib 5 μM, control for EGFR inhibition
Description: (e) PC-3 cells co-transfected with Rab5-mCherry (red), EGFR-GFP (green) and treated with hGIIA/AF647 (purple) as well as c2 at 1 μM and 10 μM for 24 hours. EGF (25 ng/mL) and Lapatinib (5 μM) were used as control treatments. N=3, >5 cells per replicate.
The effect of c2 on EGFR, Rab5 and hGIIA localisation was also examined in PC-3 cells. PC-3 cells were co-transfected with EGFR-EGFP and Rab5-mCherry before treatment with hGIIA/AF647 and c2 at 0, 1 and 10 μM.

[12] = read-out: Resistance (value in brackets)

Row | Structure (SMILES) | potency order in inhibiting the EGF/EGFR interaction [1] | inhibition of the EGF/EGFR interaction [1] | lysotracker signal of endocytosed EGFR speckles ([2]; 1 μM) | EGFR signal ([2]; 1 μM, vs DMSO) | lysotracker signal ([2]; 100 μM) | lysotracker signal of endocytosed EGFR speckles ([2]; 100 μM) | recovery of EGFR levels [6] | also measured
1 | CC(C)C[C@@H]1NC(=O)[C@@H](Cc2cccc3ccccc23)NC(=O)[C@H](CCCNC(=N)N)NC(=O)[C@H](Cc2ccc3ccccc3c2)NC(=O)[C@H](CO)NC1=O [Compound D1, cyclo[(D-1Nal)-Leu-Ser-(L-2Nal)-Arg]] (cyclo([2Nal]R[d1Nal]LS)) | FLM-c2>D1>D2>D3 | inhibited the EGF/EGFR interaction at high concentrations | significantly increased lysotracker signal | significant reduction in EGFR signal | increased lysotracker signal | significantly increased lysotracker signal | returned to normal by 24 and 48 hours | fraction of membrane-localised EGFR signal ([2]; 100 μM, vs DMSO): significantly reduced; synergy with cetuximab [3]: potent synergy; synergy with cetuximab, U0126 and chloroquine [3]: exhibited synergy with all three; synergy with cetuximab [4]: significant synergy; pERK signal, comparison among LYTAPs [5]: largest effect; IC50 compared with c2, D2 and D3 ([7]; H3255, HCC827, H1975, HCT116, SW48, SW48G12V, HT29, RKO, 0.01-300 μM, 72 hours): lowest IC50 in all cell lines; efficacy in NSCLC cell lines sensitive and resistant to erlotinib ([7]; HCC827, H1975 and H3255): retained efficacy; efficacy in cetuximab sensitive and resistant cell lines ([7]; SW48 vs SW48G12V, HT29, HCT116 and RKO): comparable efficacy
2 | C#Cc1cccc(Nc2ncnc3cc(OCCOC)c(OCCOC)cc23)c1 [erlotinib] | – | – | – | – | – | – | – | Resistance [8]: Erlotinib sensitive; IC50 [8, 12]: 40 nM; Resistance [9]: Erlotinib resistant; IC50 [9, 12]: 4300 nM
3 | CC(C)C[C@@H]1NC(=O)[C@@H](Cc2ccccc2)NC(=O)[C@H](CCCNC(=N)N)NC(=O)[C@H](Cc2ccc3ccccc3c2)NC(=O)[C@H](CO)NC1=O [Compound D2, cyclo[(D-Phe)-Leu-Ser-(L-2Nal)-Arg]] (cyclo([2Nal]R[dF]LS)) | FLM-c2>D1>D2>D3 | inhibited the EGF/EGFR interaction at high concentrations | significantly increased lysotracker signal | significant reduction in EGFR signal | increased lysotracker signal | – | returned to normal by 24 and 48 hours | –
4 | CC(C)C[C@@H]1NC(=O)[C@@H](Cc2ccccc2)NC(=O)[C@H](CCCNC(=N)N)NC(=O)[C@H](Cc2ccccc2)NC(=O)[C@H](CO)NC1=O [Compound D3, cyclo[(D-Phe)-Leu-Ser-(L-Phe)-Arg)]] (cyclo(FR[dF]LS)) | FLM-c2>D1>D2>D3 | inhibited the EGF/EGFR interaction at high concentrations | – | significant reduction in EGFR signal | – | significantly increased lysotracker signal | – | colocalization of EGFR with lysosomes [10]: confirmed colocalization of EGFR with lysosomes
5 | CS(=O)(=O)CCNCc1ccc(-c2ccc3ncnc(Nc4ccc(OCc5cccc(F)c5)c(Cl)c4)c3c2)o1 [Lapatinib] | – | – | – | – | – | – | – | effect on EGFR, Rab5 and hGIIA localisation [11]: altering the localisation of hGIIA and Rab5 to become less punctate and more cytosolic
